# Measurements taken from article PMC6387620 (Nature microbiology, 2018).
# System: E. coli BW25113
# Assay type: cell-based, Escherichia coli
# Settings: n=3
substance,measurement,value
Polymyxin B,Increase in Polymyxin B resistance,five
